Tests used:
Format in all cases: in vivo
[1] = system: western flower thrips (Frankliniella occidentalis Pergande); experiment: Test A: control of western flower thrips on sprayed bean plants; conditions: spray 500 L/ha, 7 days, immature thrips count
Experimental: For evaluating control of the western flower thrips (Frankliniella occidentalis Pergande) through contact and/or systemic means, each test unit consisted of a bean plant (var. Soleil) with at least two true leaves, which was planted in Redi-earth® medium (Scotts Co.). One plant was considered as one replication; four replications were used per treatment.
Technical material (unformulated) was dissolved in acetone and mixed with water containing 500 ppm of a blend of non-ionic surfactant with organosilicone (Kinetic®, Helena Chemical Co.). Formulated materials were diluted with water only. Rates of the test solutions were reported by the amount of active ingredient in ppm. Plants were sprayed using a TeeJet flat fan spray nozzle positioned 7.5 inches (19 cm) above the tallest plant. Spray flow rate was adjusted to 5.5 mL/sec for an equivalent of 500 L/ha. After spraying of the test solutions, the test units were placed in ventilated enclosures for at least one hour to dry. Thirty adult thrips were then added to each unit, and then the plants were placed in enclosed cages to prevent insect egress. […] Percent control was calculated by dividing the number of immature thrips in a test unit by the number of immature thrips in the untreated unit, subtracting the quotient from 1, and then multiplying the difference by 100%.

[2] = system: silverleaf whitefly (Bemisia argentifolii Bellows & Perring); experiment: Test B: control of silverleaf whitefly on sprayed cotton plants; conditions: 144 h, read-out: % Mortality of Silverleaf Whitefly
Source text: For evaluating control of silverleaf whitefly (Bemisia argentifolii Bellows & Perring), the test unit consisted of a 14-21-day-old cotton plant with at least two true leaves, which was planted in Redi-earth® medium (Scotts Co.). The plants were placed in screened cages, where whitefly adults were introduced and allowed to lay eggs for approximately twenty-four hours. Only plants showing egg lay were used for testing. Before spraying the test solutions, the plants were checked again for egg hatch and crawler settlement. One leaf per plant was considered as one replication; four replications were used per treatment.
Test solutions were formulated as described in TEST A. A control solution consisting of 25% acetone in water was also prepared. After spraying, plants were allowed to dry in a ventilated enclosure and held for six days in a growth chamber at 50% relative humidity, 16 h with light (as daytime) at 28° C. and 8 h in dark (as nighttime) at 24° C. After removing all leaves from each test plant, evaluation was made by counting dead and live nymphs present on the underside of the leaves.

[3] = system: green peach aphid (Myzus persicae); experiment: Test C: control of green peach aphid on sprayed radish plants; conditions: 144 h, read-out: % Mortality of Green Peach Aphid
Experimental: For evaluating control of green peach aphid (Myzus persicae) through contact and/or systemic means, the test unit consisted of a 3-week old radish plant pre-infested with 30-40 aphids 24 h prior to treatment with test solutions. One plant was considered as one replication, four replications were used per treatment.
After spraying of the formulated test solutions, each test unit was allowed to dry, and the test units were held for 6 days in a growth chamber maintained at 19-21° C. and 50-70% relative humidity. Dead and live of aphids were counted in each test unit to determine percent mortality.

[4] = system: beet armyworm (Spodoptera exigua); experiment: Test D: rainfastness for the control of beet armyworm on sprayed cotton plants; conditions: Rain: Yes (about 95 mm simulated rain 2 h after spraying), four days after infestation
Source text: For evaluating rainfastness (resistance to wash-off) for the control of beet armyworm (Spodoptera exigua), the test unit consisted of a cotton plant grown in a pot containing Redi-earth® medium. Test solutions were formulated as described in TEST A. When the plants were at the 4-6 true leaf growth stage, the plants were sprayed with the formulated test solution using a belt sprayer with nozzle positioned 19 cm above the plants and providing an application volume of 234 liters/ha. After spraying of the formulated test solutions, each test unit was allowed to dry for 2 h and then exposed to about 95 mm of simulated rain in a greenhouse. Plants were then allowed to dry, and leaves were cut and placed on agar in 16-cell plastic trays. One 3-day-old, laboratory reared beet armyworm larva was placed in each cell, and the cells were covered with a plastic lid. Two 16-cell trays were used per treatment. Trays were held in a growth chamber at 75% relative humidity, 16 h with light (as daytime) and 8 h in dark (as nighttime) at 25° C. Four days after infestation, each test unit was evaluated for larvae mortality, and the mean concentrations killing 50% of the population (mean LC50) were calculated and are listed in Table 4D.

## CNC(=O)c1cc(C#N)cc(C)c1NC(=O)c1cc(Br)nn1-c1ncccc1Cl [Technical Compound 1, 3-bromo-1-(3-chloro-2-pyridinyl)-N-[4-cyano-2-methyl-6-[(methylamino)carbonyl]phenyl]-1H-pyrazole-5-carboxamide]
[1]; 100 ppm a.i.
  % Control of Western Flower Thrips: 74%
[1]; 200 ppm a.i.
  % Control of Western Flower Thrips: 72%
[2]
  mortality at 22 ppm: 90%
  mortality at 66 ppm: 91%
  mortality at 200 ppm: 100%
  mortality at 600 ppm: 100%
[3]
  mortality at 50 ppm: 8%
  mortality at 100 ppm: 9%
  mortality at 200 ppm: 19%
  mortality at 400 ppm: 35%
[4]
  Mean LC50 of Beet Armyworm: Very little activity
[4]; listed as Compound 1
  Mean LC50 of Beet Armyworm: very little activity

## CNC(=O)c1cc(Cl)cc(C)c1NC(=O)c1cc(Br)nn1-c1ncccc1Cl [Technical Compound 2, 3-bromo-N-[4-chloro-2-methyl-6-[(methylamino)carbonyl]phenyl]-1-(3-chloro-2-pyridinyl)-1H-pyrazole-5-carboxamide]
[4]
  Mean LC50 of Beet Armyworm: Inactive
[4]; listed as Compound 2
  Mean LC50 of Beet Armyworm: no detectable activity
